Each block holds one compound with its values, some of them ahead of it.
Columns and labels:
[1] = AUClast in Sprague-Dawley rat at 2 mg/kg, po and 1 mg/kg, iv; format: ADME, organism-based; conditions: in vivo
[2] = Half life in Sprague-Dawley rat at 2 mg/kg, po and 1 mg/kg, iv; format: ADME, organism-based; conditions: in vivo
[3] = cells; conditions: Homo sapiens, OVCAR-3, 96 h
Description: Antiproliferative activity against KIF18A siRNA sensitive human OVCAR-3 cells assessed as decrease in nuclei number measured after 4 days incubation by Hoechst 33342 DNA dye based nuclear count assay (NCA)

[4] = Oral bioavailability in Sprague-Dawley rat at 2 mg/kg; format: ADME, organism-based; conditions: in vivo
[5] = Cmax in Sprague-Dawley rat at 2 mg/kg, po and 1 mg/kg, iv; format: ADME, organism-based; conditions: in vivo
[6] = test system: NUGC-3; assay: Antiproliferative activity against human NUGC-3 cells assessed as chemiluminescence measured after 4 days incubation by Celltiter Glo assay; conditions: NUGC-3, 96 h
[7] = test system: NCI-N87; assay: Antiproliferative activity against human NCI-N87 cells assessed as chemiluminescence measured after 4 days incubation by Celltiter Glo assay; conditions: NCI-N87, 96 h
[8] = Half life in Balb/c mouse at 30 mg/kg, po; format: ADME, organism-based; conditions: in vivo
[9] = test system: BXPC-3; assay: Antiproliferative activity against human BxPC-3 cells assessed as chemiluminescence measured after 4 days incubation by Celltiter Glo assay; conditions: BXPC-3, 96 h
[10] = Cmax in Balb/c mouse at 30 mg/kg, po; format: ADME, organism-based; conditions: in vivo
[11] = AUC in Balb/c mouse at 30 mg/kg, po; format: ADME, organism-based; conditions: in vivo
[12] = target: T1, Kinesin-like protein KIF18A (Homo sapiens, UniProt Q8NI77); assay: Inhibition of human recombinant KIF18A (1 to 436) by ADP-Glo motor assay
T1 sequence (Q8NI77 whole entry): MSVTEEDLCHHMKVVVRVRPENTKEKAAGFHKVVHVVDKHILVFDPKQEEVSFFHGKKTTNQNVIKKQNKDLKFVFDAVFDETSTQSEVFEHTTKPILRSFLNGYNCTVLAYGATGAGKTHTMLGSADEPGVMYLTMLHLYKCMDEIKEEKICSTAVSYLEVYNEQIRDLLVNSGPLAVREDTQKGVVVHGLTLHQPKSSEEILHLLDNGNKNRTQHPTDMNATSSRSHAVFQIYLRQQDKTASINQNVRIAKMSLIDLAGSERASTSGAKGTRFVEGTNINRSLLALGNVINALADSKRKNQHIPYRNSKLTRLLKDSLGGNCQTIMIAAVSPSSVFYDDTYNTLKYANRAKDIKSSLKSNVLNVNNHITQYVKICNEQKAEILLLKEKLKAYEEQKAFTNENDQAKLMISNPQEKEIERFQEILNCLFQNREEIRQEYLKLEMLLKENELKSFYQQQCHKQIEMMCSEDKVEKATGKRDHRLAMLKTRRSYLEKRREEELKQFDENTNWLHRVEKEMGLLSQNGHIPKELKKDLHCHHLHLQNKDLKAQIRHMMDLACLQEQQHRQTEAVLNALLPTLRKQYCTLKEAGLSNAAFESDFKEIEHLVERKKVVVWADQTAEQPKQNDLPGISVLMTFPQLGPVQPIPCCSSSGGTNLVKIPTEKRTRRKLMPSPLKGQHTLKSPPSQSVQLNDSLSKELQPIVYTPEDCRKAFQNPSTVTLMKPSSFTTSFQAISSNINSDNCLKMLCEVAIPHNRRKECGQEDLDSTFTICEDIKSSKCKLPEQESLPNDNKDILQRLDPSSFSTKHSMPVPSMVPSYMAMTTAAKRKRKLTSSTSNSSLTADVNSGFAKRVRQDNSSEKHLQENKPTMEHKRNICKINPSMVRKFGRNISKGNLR

[13] = target: T2, Kinesin-like protein KIF11 (Homo sapiens, UniProt P52732); assay: Inhibition of EG5 (unknown origin) assessed as luminescence measured after 135 mins by ADP-Glo motor assay
T2 sequence (P52732 whole entry): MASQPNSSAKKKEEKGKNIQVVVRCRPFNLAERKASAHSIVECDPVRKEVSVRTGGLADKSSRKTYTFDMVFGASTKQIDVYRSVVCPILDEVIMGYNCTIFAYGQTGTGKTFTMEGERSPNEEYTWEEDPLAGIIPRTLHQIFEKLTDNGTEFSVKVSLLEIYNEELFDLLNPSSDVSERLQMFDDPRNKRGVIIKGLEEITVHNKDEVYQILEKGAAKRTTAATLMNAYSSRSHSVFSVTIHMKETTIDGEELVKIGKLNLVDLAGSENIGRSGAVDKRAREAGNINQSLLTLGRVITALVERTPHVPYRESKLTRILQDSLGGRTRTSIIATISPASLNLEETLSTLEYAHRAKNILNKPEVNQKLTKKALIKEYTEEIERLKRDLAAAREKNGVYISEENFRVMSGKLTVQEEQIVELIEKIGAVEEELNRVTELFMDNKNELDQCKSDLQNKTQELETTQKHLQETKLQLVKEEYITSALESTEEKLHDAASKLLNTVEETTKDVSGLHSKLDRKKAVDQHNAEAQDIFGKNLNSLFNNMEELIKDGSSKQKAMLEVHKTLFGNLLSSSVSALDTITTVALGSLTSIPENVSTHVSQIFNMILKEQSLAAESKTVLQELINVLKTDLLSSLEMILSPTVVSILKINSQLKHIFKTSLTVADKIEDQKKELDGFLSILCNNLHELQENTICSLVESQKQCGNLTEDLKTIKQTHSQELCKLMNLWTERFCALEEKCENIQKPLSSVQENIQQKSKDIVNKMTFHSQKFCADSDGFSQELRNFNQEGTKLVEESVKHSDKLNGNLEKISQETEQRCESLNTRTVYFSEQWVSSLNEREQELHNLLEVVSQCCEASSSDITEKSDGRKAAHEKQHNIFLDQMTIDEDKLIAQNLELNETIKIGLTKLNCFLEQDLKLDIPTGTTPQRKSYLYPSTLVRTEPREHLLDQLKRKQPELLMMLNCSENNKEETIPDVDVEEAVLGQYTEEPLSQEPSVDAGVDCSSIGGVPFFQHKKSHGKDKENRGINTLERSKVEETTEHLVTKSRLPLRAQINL

[14] = target: T1, Kinesin-like protein KIF18A; assay: Inhibition of human recombinant KIF18A (1 to 374) assessed as luminescence measured after 70 mins by ADP-Glo motor assay

- AUC(0-t) [1]: 1340 ng·h/mL
- half-life [2]: 2.2 h
- EC50 [3]: 0.0182 µM
- bioavailability [4]: 40.4%
- Cmax [5]: 285 ng/mL
SMILES: O=C(Nc1cccc(N2CCC(F)(F)CC2)n1)c1ccc(NS(=O)(=O)CCO)cc1C1=CCC2(CC1)CC2

- AUC(0-t) [1]: 322 ng·h/mL
- half-life [2]: 1.2 h
- EC50 [3]: 0.0165 µM
- bioavailability [4]: 22.9%
- Cmax [5]: 140 ng/mL
SMILES: O=C(Nc1cncc(N2CCC(F)(F)CC2)n1)c1ccc(NS(=O)(=O)CCO)cc1C1=CCC2(CC1)CC2

- EC50 [3]: > 10 µM
SMILES: Cc1cc(NC(=O)c2ccc(NS(=O)(=O)CCO)cc2-c2cnn(C)c2)nc(N2CCC(F)(F)CC2)n1

- half-life [8]: 7.98 h
- IC50 [9]: 7.45 µM
- EC50 [3]: 0.0727 µM
- Cmax [10]: 7040 ng/mL
- AUC [11]: 110000 ng·h/mL
SMILES: Cc1cc(NC(=O)c2ccc(NS(=O)(=O)CCO)cc2N2CCC3(CC2)CC3)nc(N2CCC(F)(F)CC2)n1 [AMG-650]
- IC50 [6]: 0.111 µM
- IC50 [7]: 7.49 µM

- IC50 [12]: 0.071 µM
SMILES: Cc1cc(NC(=O)c2ccc(NS(=O)(=O)[C@H](C)CO)cc2N2CCC3(CC2)CC3)nc(N2CCC(F)(F)CC2)n1

- AUC(0-t) [1]: 3400 ng·h/mL
- half-life [2]: 4.7 h
- EC50 [3]: 0.0405 µM
- bioavailability [4]: 67.9%
- Cmax [5]: 424 ng/mL
SMILES: O=C(Nc1ccc(F)c(N2CCC(F)(F)CC2)n1)c1ccc(NS(=O)(=O)CCO)cc1C1=CCC2(CC1)CC2

- EC50 [3]: 1.36 µM
SMILES: Cc1cc(NC(=O)c2ccc(NS(=O)(=O)CCO)cc2C2CCC3(CC2)CC3)nc(N2CCC(F)(F)CC2)n1

- EC50 [3]: > 10 µM
SMILES: Cc1cc(NC(=O)c2ccc(NS(=O)(=O)CCO)cc2NC2CCCCC2)nc(N2CCC(F)(F)CC2)n1

- EC50 [3]: 0.743 µM
SMILES: Cc1cc(NC(=O)c2ccc(NS(=O)(=O)CCO)cc2C2=CCC3(CC2)CC3)nc(N2CC3CC3C2)n1 (configuration not stated)

- EC50 [3]: 0.138 µM
SMILES: Cc1cc(NC(=O)c2ccc(NS(=O)(=O)CCO)cc2C2=CCC3(CC2)CC3)nc(N2CC(F)(F)C2)n1

- IC50 [12]: 0.062 µM
SMILES: C[C@H]1CN(c2cccc(NC(=O)c3ccc(NS(=O)(=O)CCO)cc3N3CCC4(CC3)CC4)n2)CCO1

- EC50 [3]: 0.577 µM
SMILES: Cc1cc(NC(=O)c2ccc(NS(=O)(=O)CCO)cc2C2=CCC3(CC2)CC3)nc(N2CCCC2)n1

- EC50 [3]: > 10 µM
SMILES: Cc1cc(NC(=O)c2ccc(NS(=O)(=O)CCO)cc2C2=CCN(C)CC2)nc(N2CCC(F)(F)CC2)n1

- EC50 [3]: 2.09 µM
SMILES: Cc1cc(NC(=O)c2ccc(NS(=O)(=O)CCO)cc2N2CC3CC3C2)nc(N2CCC(F)(F)CC2)n1 (configuration not stated)

- EC50 [3]: 0.465 µM
SMILES: Cc1cc(NC(=O)c2ccc(NS(=O)(=O)CCO)cc2N2C3CCC2CC2(CC2)C3)nc(N2CCC(F)(F)CC2)n1

- EC50 [3]: 1.63 µM
SMILES: O=C(Nc1ccnc(N2CCC(F)(F)CC2)c1)c1ccc(NS(=O)(=O)CCO)cc1C1=CCC2(CC1)CC2

- EC50 [3]: 0.186 µM
SMILES: Cc1cc(NC(=O)c2ccc(NS(=O)(=O)CCO)cc2C2=CCC3(CC2)CC3)nc(C2CCC(F)(F)CC2)n1

- AUC(0-t) [1]: 1610 ng·h/mL
- half-life [2]: 4.2 h
- EC50 [3]: 0.0708 µM
- IC50 [13]: > 30 µM
- bioavailability [4]: 69.5%
- Cmax [5]: 158 ng/mL
SMILES: Cc1cc(NC(=O)c2ccc(NS(=O)(=O)CCO)cc2C2=CCC3(CC2)CC3)nc(N2CCC(F)(F)CC2)n1

- IC50 [14]: Not Active
- EC50 [3]: 0.308 µM
SMILES: Cc1cc(NC(=O)c2ccc(NS(=O)(=O)CCO)cc2C2=CCC3(CC2)CC3)cc(N2CCC(F)(F)CC2)c1

- EC50 [3]: 0.665 µM
SMILES: Cc1cc(NC(=O)c2ccc(NS(=O)(=O)CCO)cc2N2C3CCCC2CC3)nc(N2CCC(F)(F)CC2)n1

- EC50 [3]: 0.206 µM
SMILES: O=C(Nc1ccnc(N2CCC(F)(F)CC2)c1F)c1ccc(NS(=O)(=O)CCO)cc1C1=CCC2(CC1)CC2

- IC50 [14]: Not Active
- EC50 [3]: 0.337 µM
SMILES: O=C(Nc1cccc(N2CCC(F)(F)CC2)c1)c1ccc(NS(=O)(=O)CCO)cc1C1=CCC2(CC1)CC2

Source: ChEMBL document CHEMBL6071182, “Design, Biological Characterization, and Discovery of Novel Cyclohexenyl Derivatives as Kinesin KIF18A Inhibitors for the Treatment of Ovarian Cancer” (ACS Med Chem Lett, 2024)
